Legend:
[1] = Biorelevant dissolution testing (solubility/precipitation): SGF (0.1N HCl) then transfer to SIF (FaSSIF); type: physicochemical; conditions: for Total Drug CmaxGB: SGF (0.1N HCl, pH=1), 0-30 min, equivalent to 2.0 mg/mL of compound I in 50 mL; for Total Drug AUC 35-210 FaSSIF / Total Drug C210: SIF/FaSSIF; for Total Drug AUC 35-210 FaSSIF: 35-210 min; for Total Drug C210: 210 min; for Total Drug CmaxFaSSIF: after transfer at 30 min into 50 mL SIF (2.24 mg/mL FaSSIF in 100 mM PBS)
Procedure: Appropriate amounts (equivalent to 2.0 mg/mL of compound I) of composition of invention were added to 50 mL of 0.1N HCl and stirred. The aliquots of mixture were withdrawn at 10 and 25 minutes, vortexed for 10 seconds and the dissolved amount was measure by analytical HPLC using external reference standards at a wavelength of 240 nm. After 30 minutes, the entire content of sample from SGF incubation was transferred into 50 mL of SIF media with stirring, and the dissolved amount was measured at 35, 50, 75, 120 and 210 minutes.

[2] = Solubility of Compound I (preformulation, stated in words); type: physicochemical; conditions: b16: in vitro, crystalline form
[3] = Permeability of Compound I (stated in words); type: in vitro ADME
[4] = Oral exposure of suspension formulations (preformulation studies); type: in vivo; conditions: increased with 0.5% HPMC, depends on fed/fasted state

Compound | Increase in AUC over API AUC ([1]; AUC 35-210 FaSSIF relative to BNC210 API) | Total Drug CmaxGB [1] [μgA/mL] | Total Drug AUC 35-210 FaSSIF [1] [min * μgA/mL] | Total Drug C210 [1] [μgA/mL] | Total Drug CmaxFaSSIF [1] [μgA/mL] | Solubility ([2]; listed as Compound I) | Solubility ([2]; listed as compound I) | Permeability [3] | Oral exposure [4]
CCn1cc(C(=O)N2CCOCC2)c(=O)c2cc(NC3Cc4ccccc4C3)cnc21 [100% BNC210 SD] | 2 | 158 | 8700 | 60 | 68 |  |  |  | 
CCn1cc(C(=O)N2CCOCC2)c(=O)c2cc(NC3Cc4ccccc4C3)cnc21 [BNC210 API] |  | 88 | 4300 | 29 | 32 | poorly soluble | poor in vitro solubility | moderate permeability | low oral exposure
